Assay results reported in patent EP1054888B1 (priority 1998, dated 1999).
≈ marks a conversion by molar mass, not a printed value.

Tests used:
Assay in all cases: microbe, parasite or virus in culture
Assay type in all cases: cell-based
Leptosphaeria nodorum = conditions: Parastagonospora nodorum, read-out: MIC (Minimum Inhibitory Concentration) LEPTNO
[1] = test system: Magnaporthe grisea f. sp. oryzae; conditions: Pyricularia oryzae, read-out: MIC (Minimum Inhibitory Concentration) PYRIOR, Table II; total inhibition of mycelial growth, V8 juice nutrient solution, 6-12 days at 18-25°C, visual inspection
Phytophthora infestans = conditions: read-out: MIC (Minimum Inhibitory Concentration) PHYTIN
Alternaria solani = conditions: read-out: MIC (Minimum Inhibitory Concentration) ALTESO
Rhizoctonia solani = conditions: read-out: MIC (Minimum Inhibitory Concentration) RHIZSO
Pyrenophora teres = conditions: read-out: MIC (Minimum Inhibitory Concentration) PYRNTE
Botrytis cinerea = conditions: read-out: MIC (Minimum Inhibitory Concentration) BOTRCI

Fc1cccc(Cl)c1-c1c(Cl)nc2ncnn2c1C1CCCCC1 [Example 30]
MIC (Leptosphaeria nodorum): 25 µg/mL (≈ 68.4 µM) | MIC [1]: < 0.05 µg/mL | MIC (Phytophthora infestans): > 100 µg/mL | MIC (Alternaria solani): < 0.05 µg/mL | MIC (Rhizoctonia solani): > 100 µg/mL | MIC (Pyrenophora teres): 0.2 µg/mL (≈ 0.548 µM) | MIC (Botrytis cinerea): < 0.05 µg/mL

Fc1cccc(Cl)c1-c1c(Cl)nc2ncnn2c1CCC(F)(F)F [Example 32]
MIC (Leptosphaeria nodorum): > 100 µg/mL | MIC [1]: 0.2 µg/mL (≈ 0.528 µM) | MIC (Phytophthora infestans): 50 µg/mL (≈ 132 µM) | MIC (Alternaria solani): 3.13 µg/mL (≈ 8.26 µM) | MIC (Rhizoctonia solani): 6.25 µg/mL (≈ 16.5 µM) | MIC (Pyrenophora teres): 12.5 µg/mL (≈ 33 µM) | MIC (Botrytis cinerea): 0.78 µg/mL (≈ 2.06 µM)

Cc1cccc(C)c1-c1c(-c2c(F)cccc2Cl)c(Cl)nc2ncnn12 [Example 33]
MIC (Leptosphaeria nodorum): > 100 µg/mL | MIC [1]: 12.5 µg/mL (≈ 32.3 µM) | MIC (Phytophthora infestans): 6.25 µg/mL (≈ 16.1 µM) | MIC (Alternaria solani): > 100 µg/mL | MIC (Rhizoctonia solani): > 100 µg/mL | MIC (Pyrenophora teres): > 100 µg/mL | MIC (Botrytis cinerea): > 100 µg/mL

Cc1cccc(-c2c(-c3c(F)cccc3Cl)c(Cl)nc3ncnn23)c1 [Example 34]
MIC (Leptosphaeria nodorum): 25 µg/mL (≈ 67 µM) | MIC [1]: 0.78 µg/mL (≈ 2.09 µM) | MIC (Phytophthora infestans): 50 µg/mL (≈ 134 µM) | MIC (Alternaria solani): 1.56 µg/mL (≈ 4.18 µM) | MIC (Rhizoctonia solani): > 100 µg/mL | MIC (Pyrenophora teres): > 100 µg/mL | MIC (Botrytis cinerea): 6.25 µg/mL (≈ 16.7 µM)

Cc1ccccc1-c1c(-c2c(F)cccc2Cl)c(Cl)nc2ncnn12 [Example 35]
MIC (Leptosphaeria nodorum): 6.25 µg/mL (≈ 16.7 µM) | MIC [1]: 0.78 µg/mL (≈ 2.09 µM) | MIC (Phytophthora infestans): 25 µg/mL (≈ 67 µM) | MIC (Alternaria solani): 3.13 µg/mL (≈ 8.39 µM) | MIC (Rhizoctonia solani): 3.13 µg/mL (≈ 8.39 µM) | MIC (Pyrenophora teres): > 100 µg/mL | MIC (Botrytis cinerea): 3.13 µg/mL (≈ 8.39 µM)

O=C1CCCC(=O)C1c1c(-c2c(F)cccc2Cl)c(Cl)nc2ncnn12 [Example 36]
MIC (Leptosphaeria nodorum): > 100 µg/mL | MIC [1]: > 100 µg/mL | MIC (Phytophthora infestans): 12.5 µg/mL (≈ 31.8 µM) | MIC (Alternaria solani): > 100 µg/mL | MIC (Rhizoctonia solani): > 100 µg/mL | MIC (Pyrenophora teres): > 100 µg/mL | MIC (Botrytis cinerea): > 100 µg/mL

Fc1cccc(Cl)c1-c1c(F)nc2ncnn2c1C1CCCCC1 [Example 37]
MIC (Leptosphaeria nodorum): > 100 µg/mL | MIC (Phytophthora infestans): > 100 µg/mL | MIC (Rhizoctonia solani): > 100 µg/mL | MIC (Pyrenophora teres): > 100 µg/mL

COc1nc2ncnn2c(C2CCCCC2)c1-c1c(F)cccc1Cl [Example 38]
MIC (Leptosphaeria nodorum): > 100 µg/mL | MIC [1]: 0.78 µg/mL (≈ 2.16 µM) | MIC (Phytophthora infestans): > 100 µg/mL | MIC (Alternaria solani): 100 µg/mL (≈ 277 µM) | MIC (Rhizoctonia solani): > 100 µg/mL | MIC (Pyrenophora teres): > 100 µg/mL | MIC (Botrytis cinerea): > 100 µg/mL

Fc1cccc(F)c1-c1c(Cl)nc2ncnn2c1C1CCCCC1 [Example 40]
MIC (Leptosphaeria nodorum): > 100 µg/mL | MIC [1]: 0.39 µg/mL (≈ 1.12 µM) | MIC (Phytophthora infestans): > 100 µg/mL | MIC (Alternaria solani): 0.1 µg/mL (≈ 0.287 µM) | MIC (Rhizoctonia solani): > 100 µg/mL | MIC (Pyrenophora teres): 3.13 µg/mL (≈ 8.97 µM) | MIC (Botrytis cinerea): 0.39 µg/mL (≈ 1.12 µM)

Fc1ccc(-c2c(-c3c(F)cccc3Cl)c(Cl)nc3ncnn23)cc1 [Example 41]
MIC (Leptosphaeria nodorum): > 100 µg/mL | MIC [1]: 0.1 µg/mL (≈ 0.265 µM) | MIC (Phytophthora infestans): > 100 µg/mL | MIC (Alternaria solani): 1.56 µg/mL (≈ 4.14 µM) | MIC (Rhizoctonia solani): 3.13 µg/mL (≈ 8.3 µM) | MIC (Pyrenophora teres): 3.13 µg/mL (≈ 8.3 µM) | MIC (Botrytis cinerea): 3.13 µg/mL (≈ 8.3 µM)

Fc1ccccc1-c1c(Cl)nc2ncnn2c1C1CCCCC1 [Example 42]
MIC (Leptosphaeria nodorum): 0.39 µg/mL (≈ 1.18 µM) | MIC [1]: 0.39 µg/mL (≈ 1.18 µM) | MIC (Phytophthora infestans): > 100 µg/mL | MIC (Alternaria solani): 0.39 µg/mL (≈ 1.18 µM) | MIC (Rhizoctonia solani): > 100 µg/mL | MIC (Pyrenophora teres): 3.13 µg/mL (≈ 9.46 µM) | MIC (Botrytis cinerea): 1.56 µg/mL (≈ 4.72 µM)

Clc1ccccc1-c1c(Cl)nc2ncnn2c1C1CCCCC1 [Example 43]
MIC (Leptosphaeria nodorum): 1.56 µg/mL (≈ 4.49 µM) | MIC [1]: 0.39 µg/mL (≈ 1.12 µM) | MIC (Phytophthora infestans): > 100 µg/mL | MIC (Alternaria solani): 1.56 µg/mL (≈ 4.49 µM) | MIC (Rhizoctonia solani): > 100 µg/mL | MIC (Pyrenophora teres): > 100 µg/mL | MIC (Botrytis cinerea): > 100 µg/mL

Fc1cc(F)c(-c2c(Cl)nc3ncnn3c2C2CCCCC2)c(F)c1 [Example 44]
MIC (Leptosphaeria nodorum): 0.2 µg/mL (≈ 0.545 µM) | MIC [1]: < 0.05 µg/mL | MIC (Phytophthora infestans): > 100 µg/mL | MIC (Alternaria solani): < 0.05 µg/mL | MIC (Rhizoctonia solani): 0.78 µg/mL (≈ 2.13 µM) | MIC (Pyrenophora teres): 0.2 µg/mL (≈ 0.545 µM) | MIC (Botrytis cinerea): < 0.05 µg/mL

[N-]=[N+]=Nc1nc2ncnn2c(C2CCCCC2)c1-c1c(F)cccc1Cl [Example 45]
MIC (Leptosphaeria nodorum): > 100 µg/mL | MIC [1]: 12.5 µg/mL (≈ 33.6 µM) | MIC (Phytophthora infestans): > 100 µg/mL | MIC (Alternaria solani): 100 µg/mL (≈ 269 µM) | MIC (Rhizoctonia solani): > 100 µg/mL | MIC (Pyrenophora teres): > 100 µg/mL | MIC (Botrytis cinerea): > 100 µg/mL

COc1nc2ncnn2c(C2CCCCC2)c1-c1c(F)cc(F)cc1F [Example 49]
MIC (Leptosphaeria nodorum): > 100 µg/mL | MIC [1]: 0.39 µg/mL (≈ 1.08 µM) | MIC (Phytophthora infestans): > 100 µg/mL | MIC (Alternaria solani): 0.2 µg/mL (≈ 0.552 µM) | MIC (Rhizoctonia solani): > 100 µg/mL | MIC (Pyrenophora teres): 1.56 µg/mL (≈ 4.31 µM)

COc1nc2ncnn2c(C2CCCCC2)c1-c1ccccc1F [Example 50]
MIC (Leptosphaeria nodorum): > 100 µg/mL | MIC [1]: 25 µg/mL (≈ 76.6 µM) | MIC (Phytophthora infestans): > 100 µg/mL | MIC (Alternaria solani): > 100 µg/mL | MIC (Rhizoctonia solani): > 100 µg/mL | MIC (Pyrenophora teres): > 100 µg/mL | MIC (Botrytis cinerea): > 100 µg/mL

COc1cc(F)c(-c2c(OC)nc3ncnn3c2C2CCCC2)c(F)c1 [Example 99]
MIC (Leptosphaeria nodorum): > 100 µg/mL | MIC [1]: 0.39 µg/mL (≈ 1.08 µM) | MIC (Phytophthora infestans): > 100 µg/mL | MIC (Alternaria solani): 0.39 µg/mL (≈ 1.08 µM) | MIC (Rhizoctonia solani): 1.56 µg/mL (≈ 4.33 µM) | MIC (Botrytis cinerea): 0.78 µg/mL (≈ 2.16 µM)

COc1cc(F)c(-c2c(OC)nc3ncnn3c2CC(C)C)c(F)c1 [Example 100]
MIC (Leptosphaeria nodorum): > 100 µg/mL | MIC [1]: < 0.05 µg/mL | MIC (Phytophthora infestans): > 100 µg/mL | MIC (Alternaria solani): 0.39 µg/mL (≈ 1.12 µM) | MIC (Rhizoctonia solani): 1.56 µg/mL (≈ 4.48 µM) | MIC (Botrytis cinerea): 0.78 µg/mL (≈ 2.24 µM)

Fc1c(F)c(F)c(-c2c(Cl)nc3ncnn3c2C2CCCCC2)c(F)c1F [Example 101, 5-chloro-7-cyclohexyl-6-(pentafluorophenyl)-1,2,4-triazolo[1,5a]pyrimidine]
MIC (Leptosphaeria nodorum): 0.2 µg/mL (≈ 0.497 µM) | MIC [1]: 0.2 µg/mL (≈ 0.497 µM) | MIC (Phytophthora infestans): > 100 µg/mL | MIC (Alternaria solani): 0.2 µg/mL (≈ 0.497 µM) | MIC (Rhizoctonia solani): > 100 µg/mL | MIC (Pyrenophora teres): 3.13 µg/mL (≈ 7.77 µM) | MIC (Botrytis cinerea): 0.78 µg/mL (≈ 1.94 µM)
